Values of other authors, collected in patent US8916356B2, “Measuring thrombin activity in whole blood” (Synapse B.V., priority 2005, dated 2014).

B1: abciximab (antibody, chains of the INN, looked up, V domains shown)
VH: EVQLQQSGTVLARPGASVKMSCEASGYTFTNYWMHWVKQRPGQGLEWIGAIYPGNSDTSYIQKFKGKAKLTAVTSTTSVYMELSSLTNEDSAVYYCTLYDGYYVFAYWGQGTLVTVSA
VL: EIVLTQSPVTLSVTPGDSVSLSCRASRDISNNLHWFQQTSHESPRLLIKYASQSMSGIPSRFSGSGSGTDFTLSINSVETEDFGMYFCQQTNSWPYTFGGGTKLEIK
modifications: Fab
notes: antiplatelet agent

Key:
[1] = system: thrombin generation in platelet rich plasma (or whole blood); details: literature refs 13-16
[2] = literature ref 17

Row | Molecule | effect on thrombin generation [1] | effect on venous thrombosis [2]
1 | CC(=O)Oc1ccccc1C(=O)O [aspirin] | inhibit thrombin generation | prevents venous thrombosis
2 | CCCCS(=O)(=O)N[C@@H](Cc1ccc(OCCCCC2CCNCC2)cc1)C(=O)O [MK383] | inhibit thrombin generation | –
3 | COC(=O)[C@H](c1ccccc1Cl)N1CCc2sccc2C1 [clopidogrel] | inhibit thrombin generation | –
4 | B1 | inhibit thrombin generation | –
